Laboratory results from patent US8987502B2, “Oleanolic acid amidate derivatives, preparation methods and uses thereof” (Hangzhou Bensheng Pharmaceutical Co., Ltd., priority 2011, dated 2015).
In brackets after ≈: the same amount, converted by molar mass.

Key:
[1] = test system: PC-3; experiment: MTT solid tumor cell proliferation inhibition, PC-3; type: cell-based, human; settings: Homo sapiens
Protocol: (§1) Human solid tumor cell lines: Hep-2 (laryngeal carcinoma), A549 (human lung cancer), CaES-17 (esophageal cancer cell), PC-3 (prostate cancer), CNE (nasopharyngeal carcinoma cell), and SK-OV-3 (ovarian cancer cell), all of which are purchased from China Center For Type Culture Collection; RKO (human colon adenocarcinoma cell), MGC 803 (human gastric cancer cell), MG63 (osteosarcoma) and U87 MG (malignant glioma cell), all of which are purchased from Fuxiang Bio-tech Co. Ltd., Shanghai, China; PANC-1 (pancreatic cancer), Hep G2 (human liver cancer cell), Becap37 (human breast cancer cell), and Hela (human cervical cancer cell), all of which are donated by Cancer Research Institute of Zhejiang University, China.
(§2) Obtaining 4000 well-growing human solid tumor cells and inoculating them into wells of a 96-well cell culture plate. The culture medium is DMEM High Glucose cell culture medium containing 10% fetal bovine serum. The plate is placed in a carbon dioxide cell incubator (5% CO2) at 37° C. for 24 hours for incubation. After being added with the amidated oleanolic acid derivatives of different concentrations and mixed uniformly, the plate is placed in a carbon dioxide cell incubator (5% CO2) at 37° C. for 72 hours for incubation. Then the relative number of the living cells is determined by the MTT method. In this experiment, the cell proliferation inhibition rate in control group (not treated with any compound) is set as 0%.

[2] = test system: PANC-1; experiment: MTT solid tumor cell proliferation inhibition, PANC-1; type: cell-based, human; settings: Homo sapiens
Protocol: as §1, §2

[3] = test system: A549; experiment: MTT solid tumor cell proliferation inhibition, A549; type: cell-based, human
Protocol: as §1, §2

[4] = test system: RPMI8226; experiment: MTT multiple myeloma cell proliferation inhibition, RPMI8226; type: cell-based; settings: Homo sapiens, RPMI-8226
Protocol: Multiple myeloma cell lines: RPMI8226 (multiple myeloma), purchased from Fuxiang Bio-tech Co. Ltd., Shanghai, China.
(§3) Obtaining 6000 well-growing leukemia cells and inoculating them into wells of a 96-well cell culture plate. The culture medium is the 1640 cell culture medium containing 10% fetal bovine serum. After adding the amidated oleanolic acid derivatives of different concentrations and mixing uniformly, placing the plate in a carbon dioxide cell incubator (5% CO2) at 37° C. and incubated for 72 hours. Then the relative number of viable cells is determined by the MTT method. In this experiment, the cell proliferation inhibition rate in control group (not treated with any compound) is set as 0%.

[5] = test system: MG 63; experiment: MTT solid tumor cell proliferation inhibition, MG 63; type: cell-based, human
Protocol: as §1, §2

[6] = test system: K562/adr; experiment: MTT leukemia cell proliferation inhibition, K562/adr; type: cell-based; settings: Homo sapiens, 72 h
Source text: (§4) Leukemia cell lines: leukemia cell lines: K562/adr (drug-resistant, chronic myeloid leukemia, CML), NB4 (acute promyelocytic leukemia, AML), Kasumi-1 (acute myeloid leukemia M2 type, AML-M2), Jurkat (acute lymphoblastic leukemia, ALL), all of which are donated by Cancer Research Institute of Zhejiang University, China; and H9 (acute lymphoblastic leukemia, ALL), which is purchased from China Center for Type Culture Collection (CCTCC).
(§5) Reagents: The standard sample of oleanolic acid (OA) is purchased from Hua Kang Pharmaceutical Raw Material Factory, Shifang City, Sichuan, China; and the amidated oleanolic acid derivatives are prepared according to the present invention.
as §3

[7] = test system: SK-OV-3; experiment: MTT solid tumor cell proliferation inhibition, SK-OV-3; type: cell-based, human; settings: Homo sapiens
Protocol: as §1, §2

[8] = test system: Hep-2; experiment: MTT solid tumor cell proliferation inhibition, Hep-2; type: cell-based, human
Protocol: as §1, §2

[9] = test system: U87 MG; experiment: MTT solid tumor cell proliferation inhibition, U87 MG; type: cell-based, human
Protocol: as §1, §2

[10] = test system: RKO; experiment: MTT solid tumor cell proliferation inhibition, RKO; type: cell-based; settings: Homo sapiens, 72 h
Protocol: as §1, §2

[11] = test system: Jurkat; experiment: MTT leukemia cell proliferation inhibition, Jurkat; type: cell-based; settings: Homo sapiens, 72 h
Source text: as §4, §5, §3

[12] = test system: NB4; experiment: MTT leukemia cell proliferation inhibition, NB4; type: cell-based; settings: Homo sapiens, NB-4
Source text: as §4, §5, §3

[13] = test system: Hep G2; experiment: MTT solid tumor cell proliferation inhibition, Hep G2; type: cell-based; settings: Homo sapiens, HepG2
Protocol: as §1, §2

[14] = test system: Becap37; experiment: MTT solid tumor cell proliferation inhibition, Becap37; type: cell-based; settings: Homo sapiens
Protocol: as §1, §2

[15] = test system: MGC803; experiment: MTT solid tumor cell proliferation inhibition, MGC803; type: cell-based, human; settings: Homo sapiens, MGC-803
Protocol: as §1, §2

[16] = test system: H9; experiment: MTT leukemia cell proliferation inhibition, H9; type: cell-based, human; settings: Homo sapiens
Source text: as §4, §5, §3

[17] = test system: Kasumi-1; experiment: MTT leukemia cell proliferation inhibition, Kasumi-1; type: cell-based; settings: Homo sapiens
Source text: as §4, §5, §3

[18] = test system: Hela; experiment: MTT solid tumor cell proliferation inhibition, Hela; type: cell-based, human; settings: Homo sapiens, Hela, 72 h
Protocol: as §1, §2

[19] = test system: CaES-17; experiment: MTT solid tumor cell proliferation inhibition, CaES-17; type: cell-based, human
Protocol: as §1, §2

[20] = test system: CNE; experiment: MTT solid tumor cell proliferation inhibition, CNE; type: cell-based, human; settings: Homo sapiens, CNE, 72 h
Protocol: as §1, §2

[21] = 16 μg/mL compound, read-out: IR (inhibition rate)

IC50 ([1]; PC-3, 72 h, MTT): 19.5 µg/mL (≈ 37.4 µM) | IC50 ([2]; PANC-1, 72 h, MTT): > 16 µg/mL | IC50 ([3]; Homo sapiens, A549, 72 h, MTT): 15 µg/mL (≈ 28.7 µM) | IC50 ([4]; RPMI8226, 72 h, MTT): 5.79 µg/mL (≈ 11.1 µM) | IC50 ([5]; Homo sapiens, MG 63, 72 h, MTT): 15.1 µg/mL (≈ 29 µM) | IC50 ([6]; MTT): 5.26 µg/mL (≈ 10.1 µM) | IC50 ([7]; SK-OV-3, 72 h, MTT): > 16 µg/mL | IC50 ([8]; Homo sapiens, Hep-2, 72 h, MTT): > 16 µg/mL | IC50 ([9]; Homo sapiens, U-87 MG, U87 MG, 72 h, MTT): 16 µg/mL (≈ 30.7 µM) | IC50 ([10]; MTT): 14.3 µg/mL (≈ 27.4 µM) | IC50 ([11]; MTT): 14.5 µg/mL (≈ 27.8 µM) | IC50 ([12]; NB4, 72 h, MTT): 9.17 µg/mL (≈ 17.6 µM) | IC50 ([13]; Hep G2, 72 h, MTT): > 16 µg/mL | IC50 ([14]; Becap37, 72 h, MTT): > 16 µg/mL | IC50 ([15]; MGC803, 72 h, MTT): 16 µg/mL (≈ 30.7 µM) | IC50 ([16]; H9, 72 h, MTT): 14 µg/mL (≈ 26.8 µM) | IC50 ([17]; Kasumi-1, 72 h, MTT): 13.1 µg/mL (≈ 25.1 µM) | IC50 ([18]; MTT): 12.6 µg/mL (≈ 24.1 µM) | IC50 ([19]; Homo sapiens, CaEs17, CaES-17, 72 h, MTT): 12.4 µg/mL (≈ 23.8 µM) | IC50 ([20]; MTT): > 16 µg/mL
Structure (SMILES): CC1(C)CC[C@]2(NC(=O)c3ccco3)CC[C@]3(C)C(=CC[C@@H]4[C@@]5(C)CC[C@H](O)C(C)(C)[C@@H]5CC[C@]43C)[C@@H]2C1 [BS-OA-099]
inhibition at 16 µg/mL ([1]; PC-3, 16 μg/mL compound, 72 h, read-out: IR (inhibition rate)): 47.2% | inhibition at 16 µg/mL ([2]; PANC-1, 16 μg/mL compound, 72 h, read-out: IR (inhibition rate)): 34.3% | improvement of cell inhibition rate as compared with oleanolic acid ([3]; A549 cells): more than 4 fold | inhibition at 16 µg/mL ([3]; Homo sapiens, A549, 16 μg/mL compound, 72 h, read-out: IR (inhibition rate)): 75% | inhibition at 16 µg/mL ([4]; RPMI8226, 16 μg/mL compound, 72 h, read-out: IR (inhibition rate)): 98.9% | IR (inhibition rate) ([5]; MG 63, 16 μg/mL compound, 72 h): 58.9% | inhibition at 16 µg/mL [6, 21]: 97.1% | inhibition at 16 µg/mL ([7]; SK-OV-3, 16 μg/mL compound, 72 h, read-out: IR (inhibition rate)): 43.2% | improvement of cell inhibition rate as compared with oleanolic acid ([8]; Hep-2 cells): more than 3 fold | inhibition at 16 µg/mL ([8]; Homo sapiens, Hep-2, 16 μg/mL compound, 72 h, read-out: IR (inhibition rate)): 37.3% | inhibition at 16 µg/mL ([9]; Homo sapiens, U-87 MG, U87 MG, 16 μg/mL compound, 72 h, read-out: IR (inhibition rate)): 47.9% | improvement of cell inhibition rate as compared with oleanolic acid ([9]; U87 MG cells): more than 2 fold | inhibition at 16 µg/mL [10, 21]: 63.1% | inhibition at 16 µg/mL [11, 21]: 63.6% | inhibition at 16 µg/mL ([12]; NB4, 16 μg/mL compound, 72 h, read-out: IR (inhibition rate)): 100% | inhibition at 16 µg/mL ([13]; Hep G2, 16 μg/mL compound, 72 h, read-out: IR (inhibition rate)): 25.3% | inhibition at 16 µg/mL ([14]; Becap37, 16 μg/mL compound, 72 h, read-out: IR (inhibition rate)): 35.1% | inhibition at 16 µg/mL ([15]; MGC803, 16 μg/mL compound, 72 h, read-out: IR (inhibition rate)): 50% | inhibition at 16 µg/mL ([16]; H9, 16 μg/mL compound, 72 h, read-out: IR (inhibition rate)): 59.8% | inhibition at 16 µg/mL ([17]; Kasumi-1, 16 μg/mL compound, 72 h, read-out: IR (inhibition rate)): 69.1% | inhibition at 16 µg/mL [18, 21]: 72.9% | improvement of cell inhibition rate as compared with oleanolic acid ([19]; CaES-17 cells): more than 2 fold | inhibition at 16 µg/mL ([19]; Homo sapiens, CaEs17, CaES-17, 16 μg/mL compound, 72 h, read-out: IR (inhibition rate)): 66.6% | inhibition at 16 µg/mL [20, 21]: 42.4%
